Experimental findings from US10640450B1, “Hydroxytyrosol dihydrocaffeate having antioxidant activity and a method for preparing the same” (SHAANXI UNIVERSITY OF SCIENCE AND TECHNOLOGY, priority 2019, dated 2020) are described below.

The assay can be described thus: DPPH radical scavenging activity assay. The conditions noted are these: for DPPH Clearance rate: 30 min dark, room temperature, 517 nm, n = 3. The format is biochemical. The source says:
2,2-Diphenyl-1-picryl hydrazyl (DPPH) is an organic compound composed of a stable organic radical. In the DPPH molecule, due to the presence of multiple electron-withdrawing —NO2 and large π bonds of the benzene ring, nitrogen free radical is stabilized. Its methanol solution is purple and has a maximum absorption peak at 517 nm. After the addition of an antioxidant, DPPH captures an electron to be paired with the free electron, and the purple fades and turns into a yellow substance. The absorption at 517 nm disappears, and the degree of fading is quantitatively related to the number of electrons it captures. Based on this principle, a spectrophotometer is used to detect the change of the absorbance of the DPPH radical and the sample solution, and the ability of the sample to provide hydrogen atoms and scavenge free radicals can be measured.
(a) Preparation of DPPH solution: measuring exact amount of 2,2-diphenyl-1-picryl hydrazyl (DPPH) and dissolving in toluene to prepare a 0.2 mmoL/L DPPH solution, stored at 0° C. in dark.
(b) Preparation of test solution: Vc (vitamin C, positive control), hydroxytyrosol dihydrocaffeate (sample), hydroxytyrosol (control) and dihydrocaffeic acid (control). The sample solution was subjected to gradient dilution with toluene, and three sets of controls were separately dissolved in a test tube with a certain amount of toluene to prepare the same concentration gradient as the sample.
Sample liquid absorbance measurement: Taking 2 mL of test solution (Table 1: Vc, A, B, C), adding 2 mL of DPPH solution with concentration of […], mixing and reacting in the dark at room temperature for 30 min, adjusting to zero with toluene, and measuring at 517 nm. The absorbance A, was simultaneously measured for the absorbance of 2 mL of toluene mixed with 2 mL of the solution and the absorbance A0 of 2 mL of DPPH solution mixed with 2 mL of toluene (The experimental results are shown in Table 2).
Clearance rate (%)=[1−(Ai−Aj)/A0]*100% Clearance calculation: […]

For `O=C(CCc1ccc(O)c(O)c1)OCCc1ccc(O)c(O)c1` [A, 3,4-dihydroxyphenethyl 3-(3,4-dihydroxyphenyl)propanoate], the “antioxidant activity (in words)” value is “excellent antioxidant activity”. Further, the “DPPH Clearance rate” value (1.76 ppm in toluene) worked out at 13.45%. Further, for the setting “8.80 ppm in toluene”, the “DPPH Clearance rate” value is 17.80%. For the setting “21.12 ppm in toluene”, the “DPPH Clearance rate” value came to 34.16%. Moreover, the “DPPH Clearance rate” value (42.24 ppm in toluene) worked out at 42.74%. Besides, the “DPPH Clearance rate” value (79.20 ppm in toluene) turned out to be 70.42%. Further, for the setting “112.64 ppm in toluene”, the “DPPH Clearance rate” value was determined as 80.63%. The “DPPH Clearance rate” value (281.60 ppm in toluene) came to 82.35%. Moreover, the “DPPH Clearance rate” value (492.80 ppm in toluene) was 85.70%. In addition, for the setting “792.00 ppm in toluene”, the “DPPH Clearance rate” value worked out at 89.10%. Besides, where the note is “915.20 ppm in toluene”, the “DPPH Clearance rate” value is 91.22%. For the same compound, for the setting “compared with hydroxytyrosol (B) and dihydrocaffeic acid (C) alone”, the “scavenging ability to DPPH radical compared with controls” value was “much higher than those of hydroxytyrosol (B) control group and dihydrocaffeic acid (C) control groups”. Further, the “highest scavenging rate of DPPH radical” value (in the determined concentration range (1.76-915.20 ppm)) came to 91.22%.
As to `O=C(O)CCc1ccc(O)c(O)c1` [C, Dihydrocaffeic acid], the “DPPH Clearance rate” value is, setting by setting: (1.76 ppm in toluene) 6.27%; (8.80 ppm in toluene) 7.46%; (21.12 ppm in toluene) 13.42%; (42.24 ppm in toluene) 19.21%; (79.20 ppm in toluene) 32.36%; (112.64 ppm in toluene) 37.87%. Also, the “DPPH Clearance rate” value was found to be 53.23% (281.60 ppm in toluene), 59.82% (492.80 ppm in toluene), 69.01% (792.00 ppm in toluene) and 70.28% (915.20 ppm in toluene).
As to `O=C1O[C@H]([C@@H](O)CO)C(O)=C1O` [Vc, Vitamin C], the “DPPH Clearance rate” value was 23.16% (1.76 ppm in toluene); 33.47% (8.80 ppm in toluene); 79.63% (21.12 ppm in toluene); 89.55% (42.24 ppm in toluene); 97.42% (79.20 ppm in toluene); 97.53% (112.64 ppm in toluene). Further, the “DPPH Clearance rate” value by setting is: (281.60 ppm in toluene) 98.29%; (492.80 ppm in toluene) 99.06%; (792.00 ppm in toluene) 99.10%; (915.20 ppm in toluene) 99.28%.
